The text below walks through data of US20240317689A1, “POTASSIUM CHANNEL MODULATOR, COMPOSITION AND APPLICATION” (NEUSHEN THERAPEUTICS (SHANGHAI) CO., LTD, priority 2021, published 2024).

Series [1] deals with T1, KCNQ2/3 potassium ion channel (Homo sapiens, UniProt O43525+O43526).
T1 construct: expressed in transfected cells; host or cells: CHO cells (hKCNQ-CHO)
Kind of series: KCNQ2/3 potassium ion channel activation assay (whole-cell patch clamp, hKCNQ-CHO cells). The format is cell-based. The note with it: read-out: Enhancment % (current enhancement multiple); for activation at 0.05 µM: test concentration 0.05 μM; for activation at 3 µM: test concentration 3 μM. The method in brief: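 Whole-cell patch clamp at room temperature in hKCNQ-CHO cells, pH 7.4 bath and pipette solutions, DMSO <0.3%. Enhancement = (Itest − Icontrol)/Icontrol.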
In general terms: In patch-clamp work, channel activity is measured electrically.

Series [2] deals with T2, KCNQ2/3 (Homo sapiens, UniProt O43525+O43526).
T2 construct: expressed in transfected cells; host or cells: CHO cells (hKCNQ-CHO)
Description: Half-maximal activation voltage left shift assay (whole-cell patch clamp, hKCNQ-CHO cells). Type of series: cell-based. The method, then:
Example 65: Half-Maximal Activation Voltage Left Shift Assay
hKCNQ-CHO cells were cultured at 37° C. in a humidified environment of 5% CO2.
• a) Extracellular fluid (mM): NaCl 145, KCl 4, CaCl2 2, MgCl2 1, Glucose 10, HEPES 10. The pH value of the extracellular fluid was adjusted to 7.4 with NaOH, and the osmotic pressure was adjusted to about 295 mOsm. • b) Intracellular fluid (mM): KOH 31.25, KCl 120, EGTA 10, MgCl2 1.75, CaCl2 5.374, HEPES 10, Na-ATP 4. The pH value of the intracellular fluid was adjusted to 7.4 with HCl, and the osmotic pressure was adjusted to about 285 mOsm. • c) The extracellular fluid should be prepared once a week, and the intracellular fluid should be aliquoted and stored at −20° C. after preparation.
The model positive reference compound Retigabine (RTG) was dissolved with 100% DMSO and configured as a 10 mM working solution. The test compounds were dissolved with 100% DMSO and configured as a 10 mM working solution. The final concentration of DMSO in the test solution should be less than 0.3%.
Whole-cell patch clamp was performed at room temperature. The electrical signals recorded with the EPC 10 USB amplifier (HEKA Elektronik, Germany) were filtered by a 3 kHz low-pass filter, and finally recorded in PatchMaster 2×90.5 software (HEKA Elektronik, Germany). At this step, the quality control standard was that the cell high-resistance sealing was greater than 500 MOhms, and the detection current was greater than 0.4 nA.
The recording electrodes were pulled out and polished with a vertical puller (NARISHIGE PC-10, Japan) using a borosilicate glass capillary (GC150tF-10, Harvard Apparatus Co., UK). At this step, the quality control standard was that the electrode resistance was between 2 MΩ and 5 MΩ.
During the recording process of the whole-cell patch clamp, a continuous perfusion system (BT100-2J, LongerPump, China) was used to continuously perfuse the extracellular fluid. The perfusion system was installed on the stage of an upright microscope (FN-S2N, Nikon, Japan), and the perfusion head was manually positioned under the microscope.
The voltage command for detecting the amplitude of hKCNQ current was as follows: the cell was clamped from a potential of −80 mV, stepped to −120 mV, and then clamped continuously at increasing voltages of 10 mV per sweep until +60 mV, held for 1500 ms; and then the clamping voltage was lowered to −120 my and held for 500 ms; finally, the voltage returned to the clamping potential of −80 mV. The detection voltage command was repeated every 15,000 milliseconds, and the command was continuously executed during the compound test. The half-maximal voltage of the cell's hKCNQ was obtained by nonlinear fitting of the current amplitude at different clamping potentials (−120 mV to +60 mV).
Data analysis was performed using PatchMaster 2×90.5 software (HEKA Elektronik, Germany) and Excel 2013 (Microsoft, USA) software. For each cell's patch clamp recording, the half-maximal voltage (V½-test) of hKCNQ corresponding to the test compound concentration should be obtained. The left-shifted half-maximal voltage value ΔV½ (V1/2 Shift (mV)) was obtained by subtracting the half-maximal voltage of hKCNQ before compound action (V½-control) from V½-test.

The nature of series [3]: Blood-brain barrier permeability assay in mice (brain concentration after intragastric administration). Type of series: in vivo. The note with it: 5 mg/kg, brain tissue homogenate. Here is the method:
Administration Dosage of 5 mg/kg
The drug was prepared in proportion (solvent: 5% DMSO+5% Solutol+90% normal saline) to make a solution with a concentration of 0.5 mg/mL, and the mice were subjected to intragastric administration at 0.1 mL/10 g, with 3 mice per group in parallel.
After the mice were administered, the mice were anesthetized and perfused with normal saline through the heart, dissected to collect the brain tissue. The brain tissue was washed with normal saline, dried, weighed, and transferred to a 2 mL EP tube, added with normal saline according to brain tissue: normal saline=1:1 (g/mL). 3 steel balls were put in each tube on a tissue grinder, and the tissue mixture was homogenized at 60 HZ for 60 s, centrifuged at 15000 rpm at 4° C. for 10 minutes, and the supernatant was taken, which was the brain tissue homogenate.
The drug stock solution (0.5 mg/mL) was taken and diluted with acetonitrile to form standard curve working solutions with concentrations of 50, 100, 200, 500, 1000, 2000, 5000, 10000, and 20000 ng/mL, and quality control working solutions with concentrations of 100, 2000, and 10000 ng/mL. 47.5 μL of blank matrix was taken respectively, and 2.5 μL of standard curve working solution and 2.5 μL of quality control working solution were added thereto to prepare standard curve samples with concentrations of 2.5, 5, 10, 25, 50, 100, 250, 500, and 1000 ng/mL and quality control samples with concentrations of 5, 100, and 500 ng/mL. 200 μL of acetonitrile (containing the internal standard of 5 ng/mL of Loratadine) was added thereto respectively, subjected to vortex oscillation for 3 minutes, centrifuged at 15,000 rpm and 4° C. for 10 minutes, and the supernatant was taken and analyzed by LC-MS/MS to obtain a standard curve.
50 μL of brain tissue homogenate sample was taken, added with 200 μL of acetonitrile (containing the internal standard of 5 ng/mL of Loratadine), subjected to vortex oscillation for 3 minutes, centrifuged at 15,000 rpm and 4° C. for 10 minutes, and the supernatant was taken for LC-MS/MS analysis. The standard curve was combined with the analysis to obtain the corresponding concentrations in the brain.

Series [4] has as its system MES-induced epilepsy in mice. Description: MES mouse epilepsy model. The format is in vivo. The conditions noted are these: 5 mpk, electrical stimulation 30 minutes after administration. The method, then: Example 67: MES Mouse Epilepsy Model
• 1. The mice (10 mice per group) were transferred to the operating room to adapt to the environment 30 minutes before the experiment. • 2. The mice were administered the test compounds or positive drug (Valproate) at a specific time point. 30 minutes after the administration of Valproate or 30 minutes after the administration of the test compounds, electrical stimulation was given with ear electrodes. The stimulation parameters were a square wave with a total duration of 0.8 seconds, a frequency of 50 Hz, and an amplitude of 50 mA with an interval of 10 msec. • 3. The number and duration of hind limb tonic extension of the animal within 1 minute after the completion of the electrical stimulation was recorded, and the possible death and time of death were also recorded. • 4. After administration, the possible side effects induced by the drug were observed and recorded, and the side effects are divided into four levels: • None: Normal • Mild sedation • Moderate sedation • Severe sedation

Turning to `Cc1cc(N2CCCc3cc(OC(C)C(F)(F)F)ccc3C2)cc(C)c1NC(=O)CC(C)(C)C` (centres unmarked) [Compound 008, N-(2,6-dimethyl-4-(7-((1,1,1-trifluoropropan-2-yl)oxy)-1,3,4,5-tetrahydro-2H-benzo[c]azepin-2-yl)phenyl)-3,3-dimethylbutanamide], in series [1], the activation at 0.05 µM lay in the range of 50 to 100% and the activation at 3 µM is above 100%. The “V1/2 Shift (mV)” value in series [2] (test concentration 50 nM) is reported as −23.38 mV. Moreover, the “V1/2 Shift (mV)” value in series [2] (test concentration 300 nM) is −47.60 mV. Further, in series [3], the “Concentrations in the brain” value worked out at 166.1 ng/g. Also, the “Protection rate for tonic extension” value in series [4] is reported as 90%.
On to `Cc1cc(N2CCCc3cc(OC(C)C)c(F)cc3C2)cc(C)c1NC(=O)CC(C)(C)C` [Compound 035, N-(4-(8-fluoro-7-isopropoxy-1,3,4,5-tetrahydro-2H-benzo[c]azepin-2-yl)-2,6-dimethylphenyl)-3,3-dimethylbutanamide], for which, in series [1], the activation at 0.05 µM fell in the range of 50 to 100% and the activation at 3 µM was above 100%. In addition, the “V1/2 Shift (mV)” value in series [2] (test concentration 50 nM) is recorded as −16.46 mV. Besides, the “Concentrations in the brain” value in series [3] was found to be 257 ng/g. Besides, the “Protection rate for tonic extension” value in series [4] came out at 100%.
